± gives the expanded uncertainty stated by the source.
Settings: Liquid, Transpiration method

**Q.** With `CC(C)(C)OC(=O)CC(=O)OC(C)(C)C` [bis(1,1-dimethylethyl) propanedioate] as the compound, how does the “vapor or sublimation pressure” value (293.7 K) read?
**A.** 0.00787 ± 0.00064 kPa

**Q.** And the “vapor or sublimation pressure” value (295.7 K)?
**A.** 0.00952 ± 0.00075 kPa

**Q.** And the “vapor or sublimation pressure” value (298.6 K)?
**A.** 0.0122 ± 0.001 kPa

**Q.** And the “vapor or sublimation pressure” value (301.7 K)?
**A.** 0.0159 ± 0.0012 kPa

**Q.** And the “vapor or sublimation pressure” value (303.6 K)?
**A.** 0.0186 ± 0.0014 kPa

**Q.** What about the “vapor or sublimation pressure” value (306.6 K) of the same compound?
**A.** 0.023 ± 0.0017 kPa

**Q.** And the “vapor or sublimation pressure” value (308.6 K)?
**A.** 0.0274 ± 0.0022 kPa

**Q.** What about the “vapor or sublimation pressure” value (310.7 K) of the same compound?
**A.** 0.0337 ± 0.0027 kPa

**Q.** What about the “vapor or sublimation pressure” value (312.6 K) of the same compound?
**A.** 0.0399 ± 0.0031 kPa

**Q.** And the “vapor or sublimation pressure” value (315.6 K)?
**A.** 0.0494 ± 0.0036 kPa

**Q.** And the “vapor or sublimation pressure” value (317.6 K)?
**A.** 0.055 ± 0.0042 kPa

**Q.** And the “vapor or sublimation pressure” value (319.6 K)?
**A.** 0.0663 ± 0.0049 kPa

**Q.** What about the “vapor or sublimation pressure” value (321.6 K) of the same compound?
**A.** 0.0714 ± 0.0053 kPa

**Q.** And the “vapor or sublimation pressure” value (323.6 K)?
**A.** 0.0845 ± 0.0065 kPa

**Q.** And the “vapor or sublimation pressure” value (324.7 K)?
**A.** 0.0934 ± 0.0071 kPa

**Q.** What about the “vapor or sublimation pressure” value (327.6 K) of the same compound?
**A.** 0.1125 ± 0.0089 kPa

**Q.** And the “vapor or sublimation pressure” value (333.5 K)?
**A.** 0.1828 ± 0.013 kPa

**Q.** And the “vapor or sublimation pressure” value (336.5 K)?
**A.** 0.2131 ± 0.016 kPa

**Q.** What about the “vapor or sublimation pressure” value (339.5 K) of the same compound?
**A.** 0.2702 ± 0.02 kPa

**Q.** And the “vapor or sublimation pressure” value (342.5 K)?
**A.** 0.333 ± 0.025 kPa

**Q.** What about the “vapor or sublimation pressure” value (345.5 K) of the same compound?
**A.** 0.3886 ± 0.028 kPa

**Q.** With `CC(C)OC(=O)CCC(=O)OC(C)C` [bis(1-methylethyl) butanedioate] as the compound, how does the “vapor or sublimation pressure” value (304.4 K) read?
**A.** 0.0113 ± 0.0009 kPa

**Q.** What about the “vapor or sublimation pressure” value (307.4 K) of the same compound?
**A.** 0.0147 ± 0.0011 kPa

**Q.** And the “vapor or sublimation pressure” value (310.4 K)?
**A.** 0.0186 ± 0.0014 kPa

**Q.** What about the “vapor or sublimation pressure” value (313.4 K) of the same compound?
**A.** 0.0236 ± 0.0018 kPa

**Q.** What about the “vapor or sublimation pressure” value (316.4 K) of the same compound?
**A.** 0.0301 ± 0.0023 kPa

**Q.** What about the “vapor or sublimation pressure” value (318.5 K) of the same compound?
**A.** 0.0352 ± 0.0027 kPa

**Q.** And the “vapor or sublimation pressure” value (321.4 K)?
**A.** 0.0448 ± 0.0034 kPa

**Q.** What about the “vapor or sublimation pressure” value (323.4 K) of the same compound?
**A.** 0.0527 ± 0.004 kPa

**Q.** And the “vapor or sublimation pressure” value (326.4 K)?
**A.** 0.0651 ± 0.0049 kPa

**Q.** And the “vapor or sublimation pressure” value (328.5 K)?
**A.** 0.0749 ± 0.0058 kPa

**Q.** And the “vapor or sublimation pressure” value (331.4 K)?
**A.** 0.096 ± 0.0073 kPa

**Q.** And the “vapor or sublimation pressure” value (333.3 K)?
**A.** 0.1092 ± 0.0081 kPa

**Q.** With `CC(C)OC(=O)CCCC(=O)OC(C)C` [bis(1-methylethyl) pentanedioate] as the compound, how does the “vapor or sublimation pressure” value (294.5 K) read?
**A.** 0.00137 ± 0.00011 kPa

**Q.** And the “vapor or sublimation pressure” value (297.5 K)?
**A.** 0.00175 ± 0.00014 kPa

**Q.** What about the “vapor or sublimation pressure” value (300.5 K) of the same compound?
**A.** 0.00246 ± 0.0002 kPa

**Q.** And the “vapor or sublimation pressure” value (303.4 K)?
**A.** 0.00328 ± 0.00026 kPa

**Q.** What about the “vapor or sublimation pressure” value (306.4 K) of the same compound?
**A.** 0.00433 ± 0.00035 kPa

**Q.** And the “vapor or sublimation pressure” value (309.5 K)?
**A.** 0.00594 ± 0.00045 kPa

**Q.** And the “vapor or sublimation pressure” value (312.5 K)?
**A.** 0.00714 ± 0.00055 kPa

**Q.** And the “vapor or sublimation pressure” value (315.5 K)?
**A.** 0.00958 ± 0.00076 kPa

**Q.** What about the “vapor or sublimation pressure” value (318.6 K) of the same compound?
**A.** 0.0126 ± 0.001 kPa

**Q.** And the “vapor or sublimation pressure” value (322.7 K)?
**A.** 0.017 ± 0.0013 kPa

**Q.** And the “vapor or sublimation pressure” value (324.4 K)?
**A.** 0.0199 ± 0.0015 kPa

**Q.** And the “vapor or sublimation pressure” value (327.4 K)?
**A.** 0.0251 ± 0.0019 kPa

**Q.** Which “vapor or sublimation pressure” value (322.6 K) does the source give for `CC(C)(C)OC(=O)CCCCC(=O)OC(C)(C)C` [di-tert-butyl adipate] here?
**A.** 0.00711 ± 0.00055 kPa

**Q.** What about the “vapor or sublimation pressure” value (323.4 K) of the same compound?
**A.** 0.00757 ± 0.00058 kPa

**Q.** What about the “vapor or sublimation pressure” value (326.2 K) of the same compound?
**A.** 0.00926 ± 0.0007 kPa

**Q.** And the “vapor or sublimation pressure” value (329 K)?
**A.** 0.0113 ± 0.00086 kPa

**Q.** And the “vapor or sublimation pressure” value (331.8 K)?
**A.** 0.01428 ± 0.0011 kPa

**Q.** What about the “vapor or sublimation pressure” value (336 K) of the same compound?
**A.** 0.01907 ± 0.0014 kPa

**Q.** And the “vapor or sublimation pressure” value (338 K)?
**A.** 0.02216 ± 0.0017 kPa

**Q.** What about the “vapor or sublimation pressure” value (341 K) of the same compound?
**A.** 0.02859 ± 0.0021 kPa

**Q.** What about the “vapor or sublimation pressure” value (344 K) of the same compound?
**A.** 0.03272 ± 0.0024 kPa

**Q.** What about the “vapor or sublimation pressure” value (346.9 K) of the same compound?
**A.** 0.04033 ± 0.0031 kPa

**Q.** What about the “vapor or sublimation pressure” value (349.9 K) of the same compound?
**A.** 0.0511 ± 0.0038 kPa

**Q.** What about the “vapor or sublimation pressure” value (352.9 K) of the same compound?
**A.** 0.06145 ± 0.0046 kPa

**Q.** What about the “vapor or sublimation pressure” value (355.9 K) of the same compound?
**A.** 0.07647 ± 0.0057 kPa

**Q.** And the “vapor or sublimation pressure” value (358.9 K)?
**A.** 0.09287 ± 0.0069 kPa

**Q.** And the “vapor or sublimation pressure” value (361.9 K)?
**A.** 0.1117 ± 0.0079 kPa

**Q.** And the “vapor or sublimation pressure” value (362.4 K)?
**A.** 0.1137 ± 0.0081 kPa

**Q.** And the “vapor or sublimation pressure” value (362.5 K)?
**A.** 0.1144 ± 0.0082 kPa

**Q.** And the “vapor or sublimation pressure” value (366.3 K)?
**A.** 0.1453 ± 0.011 kPa

**Q.** What does the source list for `CC(C)(C)OC(=O)CCCC(=O)OC(C)(C)C` [di-tert-butyl glutarate]?
**A.** vapor or sublimation pressure (295.2 K): 0.00104 ± 9e-05 kPa; vapor or sublimation pressure (297.2 K): 0.0013 ± 0.00011 kPa; vapor or sublimation pressure (299.2 K): 0.00157 ± 0.00012 kPa; vapor or sublimation pressure (301.2 K): 0.00187 ± 0.00015 kPa; vapor or sublimation pressure (303.2 K): 0.00231 ± 0.00018 kPa; vapor or sublimation pressure (305.2 K): 0.00276 ± 0.00022 kPa; vapor or sublimation pressure (307.2 K): 0.00334 ± 0.00026 kPa; vapor or sublimation pressure (309.2 K): 0.00393 ± 0.00031 kPa; vapor or sublimation pressure (311.2 K): 0.00471 ± 0.00038 kPa; vapor or sublimation pressure (313.2 K): 0.00581 ± 0.00045 kPa; vapor or sublimation pressure (315.2 K): 0.00674 ± 0.00052 kPa; vapor or sublimation pressure (317.2 K): 0.00801 ± 0.00061 kPa; vapor or sublimation pressure (319.2 K): 0.00909 ± 0.00068 kPa; vapor or sublimation pressure (321.2 K): 0.0104 ± 0.0008 kPa; vapor or sublimation pressure (323.2 K): 0.0123 ± 0.001 kPa; vapor or sublimation pressure (325.2 K): 0.0152 ± 0.0012 kPa
